Experimental data as given in the NIST ThermoML archive (doi:10.1021/je200721d).

Test: xn = mol fraction of the nth substance listed
Conditions: Liquid, Vibrating tube method

CCCCCCCCCC [decane] + CCCCCC
Conditions	mass density [kg/m3]
343.06 K, 22000 kPa, x2 = 0.7524	665.93
343.06 K, 23000 kPa, x2 = 0.2185	702.17
343.06 K, 23000 kPa, x2 = 0.7524	666.87
343.06 K, 24000 kPa, x2 = 0.2185	702.97
343.06 K, 24000 kPa, x2 = 0.7524	667.79
343.06 K, 25000 kPa, x2 = 0.2185	703.79
343.06 K, 25000 kPa, x2 = 0.7524	668.69
343.08 K, 1000 kPa, x2 = 0.4968	663.07
343.08 K, 2000 kPa, x2 = 0.4968	664.35
343.08 K, 3000 kPa, x2 = 0.4968	665.55
343.08 K, 4000 kPa, x2 = 0.4968	666.8
343.08 K, 5000 kPa, x2 = 0.4968	667.97
343.08 K, 6000 kPa, x2 = 0.4968	669.14
343.08 K, 7000 kPa, x2 = 0.4968	670.28
343.08 K, 8000 kPa, x2 = 0.4968	671.4
343.08 K, 9000 kPa, x2 = 0.4968	672.48
343.08 K, 10000 kPa, x2 = 0.4968	673.55
343.08 K, 11000 kPa, x2 = 0.4968	674.64
343.08 K, 12000 kPa, x2 = 0.4968	675.64
343.08 K, 13000 kPa, x2 = 0.4968	676.63
343.08 K, 14000 kPa, x2 = 0.4968	677.63
343.08 K, 15000 kPa, x2 = 0.4968	678.63
343.08 K, 16000 kPa, x2 = 0.4968	679.61
343.08 K, 17000 kPa, x2 = 0.4968	680.59
343.08 K, 18000 kPa, x2 = 0.4968	681.52
343.08 K, 19000 kPa, x2 = 0.4968	682.46
343.08 K, 20000 kPa, x2 = 0.4968	683.4
343.08 K, 21000 kPa, x2 = 0.4968	684.32
343.08 K, 22000 kPa, x2 = 0.4968	685.22
343.08 K, 23000 kPa, x2 = 0.4968	686.1
343.08 K, 24000 kPa, x2 = 0.4968	686.98
343.08 K, 25000 kPa, x2 = 0.4968	687.83
352.75 K, 1000 kPa, x2 = 0.8991	617.37
352.75 K, 2000 kPa, x2 = 0.8991	618.91
352.75 K, 3000 kPa, x2 = 0.8991	620.43
352.75 K, 4000 kPa, x2 = 0.8991	621.91
352.75 K, 5000 kPa, x2 = 0.8991	623.4
352.75 K, 6000 kPa, x2 = 0.8991	624.85
352.75 K, 7000 kPa, x2 = 0.8991	626.29
352.75 K, 8000 kPa, x2 = 0.8991	627.7
352.75 K, 9000 kPa, x2 = 0.8991	629.09
352.75 K, 10000 kPa, x2 = 0.8991	630.46
352.75 K, 11000 kPa, x2 = 0.8991	631.8
352.75 K, 12000 kPa, x2 = 0.8991	633.12
352.75 K, 13000 kPa, x2 = 0.8991	634.41
352.75 K, 14000 kPa, x2 = 0.8991	635.69
352.75 K, 15000 kPa, x2 = 0.8991	636.93
352.75 K, 16000 kPa, x2 = 0.8991	638.16
352.75 K, 17000 kPa, x2 = 0.8991	639.35
352.75 K, 18000 kPa, x2 = 0.8991	640.52
352.75 K, 19000 kPa, x2 = 0.8991	641.66
352.75 K, 20000 kPa, x2 = 0.8991	642.78
352.75 K, 21000 kPa, x2 = 0.8991	643.87
352.75 K, 22000 kPa, x2 = 0.8991	644.93
352.75 K, 23000 kPa, x2 = 0.8991	645.98
352.75 K, 24000 kPa, x2 = 0.8991	646.99
352.75 K, 25000 kPa, x2 = 0.8991	647.98
352.99 K, 1000 kPa, x2 = 0.0456	682.21
352.99 K, 1000 kPa, x2 = 0.7524	632.44
352.99 K, 2000 kPa, x2 = 0.0456	683.34
352.99 K, 2000 kPa, x2 = 0.7524	633.97
352.99 K, 3000 kPa, x2 = 0.0456	684.46
352.99 K, 3000 kPa, x2 = 0.7524	635.47
352.99 K, 4000 kPa, x2 = 0.0456	685.57
352.99 K, 4000 kPa, x2 = 0.7524	636.89
352.99 K, 5000 kPa, x2 = 0.0456	686.64
352.99 K, 5000 kPa, x2 = 0.7524	638.37
352.99 K, 6000 kPa, x2 = 0.0456	687.71
352.99 K, 6000 kPa, x2 = 0.7524	639.77
352.99 K, 7000 kPa, x2 = 0.0456	688.77
352.99 K, 7000 kPa, x2 = 0.7524	641.14
352.99 K, 8000 kPa, x2 = 0.0456	689.81
352.99 K, 8000 kPa, x2 = 0.7524	642.48
352.99 K, 9000 kPa, x2 = 0.0456	690.83
352.99 K, 9000 kPa, x2 = 0.7524	643.77
352.99 K, 10000 kPa, x2 = 0.0456	691.84
352.99 K, 10000 kPa, x2 = 0.7524	645.03
352.99 K, 11000 kPa, x2 = 0.0456	692.84
352.99 K, 11000 kPa, x2 = 0.7524	646.28
352.99 K, 12000 kPa, x2 = 0.0456	693.82
352.99 K, 12000 kPa, x2 = 0.7524	647.51
352.99 K, 13000 kPa, x2 = 0.0456	694.79
352.99 K, 13000 kPa, x2 = 0.7524	648.71
352.99 K, 14000 kPa, x2 = 0.0456	695.75
352.99 K, 14000 kPa, x2 = 0.7524	649.88
352.99 K, 15000 kPa, x2 = 0.0456	696.69
352.99 K, 15000 kPa, x2 = 0.7524	651.03
352.99 K, 16000 kPa, x2 = 0.0456	697.62
352.99 K, 16000 kPa, x2 = 0.7524	652.16
352.99 K, 17000 kPa, x2 = 0.0456	698.54
352.99 K, 17000 kPa, x2 = 0.7524	653.28
352.99 K, 18000 kPa, x2 = 0.0456	699.44
352.99 K, 18000 kPa, x2 = 0.7524	654.35
352.99 K, 19000 kPa, x2 = 0.0456	700.33
